Test results: patent US5646180A (priority 1995, dated 1997)
Where two headings read alike, the source gives them in different places.

Key:
[1] = cited from earlier work
aqueous solubility = type: physicochemical; conditions: water
HIV = type: cell-based
[2] = Source text: […]. The potential of this compound to be delivered at doses far exceeding its effective antiviral level is advantageous in slowing or preventing the possibility of resistant variants developing.
oral availability = type: in vivo; conditions: oral administration, mammals
HIV-1 virus = experiment: HIV-1 infection of immortalized human T cells, assay of extracellular p24 antigen; type: cell-based; conditions: over a period of days
Source text: Accordingly, the compound is capable of targeting and inhibiting late stage events in HIV replication, i.e., the processing of the viral polyproteins by HIV encoded proteases. […] Because aspartyl protease is essential for the production of mature virions, inhibition of that processing effectively blocks the spread of virus by inhibiting the production of infectious virions, particularly from chronically infected cells. […] Other anti-viral assays have confirmed the potency of this compound.

HIV-2 protease = experiment: ligand for / inhibition of HIV-2 protease; type: biochemical
HIV-1 protease = experiment: ligand for / inhibition of HIV-1 protease; type: biochemical
[3] = prior-art HIV drugs, background statement, nucleosides compared with AZT

SMILES: CC(C)c1nc(CN(C)C(=O)N[C@H](C(=O)N[C@@H](Cc2ccccc2)C[C@H](O)[C@H](Cc2ccccc2)NC(=O)OCc2cncs2)C(C)C)cs1 [ABT 538]
- CNS distribution / CNS penetration (in words) ([1]; in vivo): very limited CNS penetration

SMILES: CC(C)CN(CC(O)C(Cc1ccccc1)NC(=O)OC1CCOC1)S(=O)(=O)c1ccc(N)cc1 (stereo not shown) [Compound I]
- solubility (aqueous solubility): ≥ 100 µg/mL
- combination effect in preventing the replication of HIV in human T cells (in words) (HIV): acts in an additive or synergistical manner
- therapeutic index (in words) [2]: impressively high therapeutic index
- oral availability (in words) (oral availability): surprisingly impressive oral availability
- inhibition of the ability of HIV-1 to infect immortalized human T cells (in words) (HIV-1 virus): inhibits the ability of the HIV-1 virus to infect immortalized human T cells
- ligand for HIV-2 protease (in words) (HIV-2 protease): excellent ligand
- ligand for HIV-1 protease (in words) (HIV-1 protease): excellent ligand

SMILES: CC(C)(C)NC(=O)[C@@H]1CN(Cc2cccnc2)CCN1C[C@@H](O)C[C@@H](Cc1ccccc1)C(=O)N[C@H]1c2ccccc2C[C@H]1O [Compound L-535524]
- CNS distribution / CNS penetration (in words) [1, 3]: about the same distribution

SMILES: Cc1cn([C@H]2C=C[C@@H](CO)O2)c(=O)[nH]c1=O [d4T]
- CNS distribution / CNS penetration (in words) [1, 3]: even worse distribution profiles in the CNS
